# Source: ChEMBL document CHEMBL1821595, “Covalent stabilization of a small molecule-RNA complex” (Bioorg Med Chem Lett, 2011)
# Calls of active or inactive are those of the source. The calls are words filed in the database; no cut-off is given here.
# How the values were obtained:
# Type in all cases: nucleic-acid assay
# Nucleic Acid [1] = experiment: Binding affinity to thiol-bearing RNA1 aptamer assessed as RNA1-compound conjugate formation at 1 uM after 1 hr by MALDI-MS analysis in presence of complementary DNA
# Nucleic Acid [2] = experiment: Binding affinity to thiol-bearing RNA2 aptamer assessed as RNA2-compound conjugate formation at 1 uM by MALDI-MS 123 analysis
# Nucleic Acid [3] = experiment: Binding affinity to thiol-bearing RNA1 aptamer assessed as RNA1-compound conjugate formation at 1 uM by MALDI-MS 123 analysis
# Nucleic Acid [4] = experiment: Binding affinity to thiol-bearing RNA2 aptamer assessed as RNA2-compound conjugate formation at 1 uM after 1 hr by MALDI-MS analysis in presence of complementary DNA
# Nucleic Acid [5] = experiment: Binding affinity to RNA1-DNA hybrid assessed as inhibition of RNA1/DNA hybrid-compound conjugate formation at 1 uM after 1 hr by MALDI-MS analysis
# Nucleic Acid [6] = experiment: Binding affinity to thiol-bearing RNA1 aptamer assessed as RNA1-compound conjugate formation at 1 uM after 1 hr by MALDI-MS analysis in presence of non-complementary DNA and 1 uM iodoacetamide
# Nucleic Acid [7] = experiment: Covalent binding affinity to thiol-bearing RNA1 aptamer assessed as rate constant at 1 uM by MALDI-MS analysis
# Nucleic Acid [8] = experiment: Binding affinity to thiol-bearing RNA1 aptamer assessed as RNA1-compound conjugate formation at 1 uM after 1 hr by MALDI-MS analysis in presence of non-complementary DNA
SMILES,Activity (Nucleic Acid [1]),Activity (Nucleic Acid [2]),Activity (Nucleic Acid [3]),Activity (Nucleic Acid [4]),Activity (Nucleic Acid [5]),Activity (Nucleic Acid [6]),K (Nucleic Acid [7]),Activity (Nucleic Acid [8])
CC(C)[C@H](NC(=O)CBr)C(=O)NCc1ccc(Nc2cc(-c3ccccc3)nc3c(C(=O)N[C@@H](CCCNC(=N)N)C(N)=O)cccc23)cc1,inactive,Active,Active,inactive,–,–,–,–
CC(C)[C@H](NC(=O)[C@H](CO)NC(=O)CBr)C(=O)NCc1ccc(Nc2cc(-c3ccccc3)nc3c(C(=O)N[C@@H](CCCNC(=N)N)C(N)=O)cccc23)cc1,inactive,Active,Active,inactive,–,–,–,–
N=C(N)NCCC[C@H](NC(=O)c1cccc2c(Nc3ccc(CNC(=O)CBr)cc3)cc(-c3ccccc3)nc12)C(N)=O,–,Active,90%,–,inactive,90%,5.5 ×10⁻² /min,inactive
